Experimental data from US7792665B2, “Method for designing a compound based on the three dimensional structure of phosphoinositide dependent protein kinase 1 (PDK1)” (Medical Research Council, priority 2002, dated 2010).
“And” between values parts separate entries of the source, which are not always exact repeats. Equal entries are not always repeated. Where no end group is shown, it is not given here. [ ]: non-standard residue; d: D form. pT = C[C@@H](OP(=O)(O)O)[C@H](N)C(=O)O

Assays:
[1] = test system: AMPK; assay: Kinase panel assay, AMPK; type: biochemical; conditions: 1 μM inhibitor, 0.1 mM ATP, average of triplicate
Experimental: (§1) Other protein kinases employed in Table 5, were assayed as described previously.

[2] = target: PRAK (Homo sapiens, UniProt Q8IW41); assay: Kinase panel assay, PRAK; type: biochemical; conditions: 1 μM inhibitor, 0.1 mM ATP, average of triplicate
[3] = target: MAPKAP-K1a (Homo sapiens, UniProt Q15418); assay: Kinase panel assay, MAPKAP-K1a; type: biochemical; conditions: 1 μM inhibitor, 0.1 mM ATP, average of triplicate
[4] = target: PKBΔPH (Homo sapiens, UniProt P31749); assay: biochemical; conditions: read-out: percentage of kinase activity compared to control incubations, PKBΔPH
Experimental: as §1

[5] = target: T1, PDK1 (Homo sapiens, UniProt O15530); assay: PDK1 protein kinase assay with PDK1tide substrate and [γ-32P]ATP; type: biochemical; conditions: 1 μM inhibitor, 0.1 mM ATP, average of triplicate
T1 sequence (O15530 1-556): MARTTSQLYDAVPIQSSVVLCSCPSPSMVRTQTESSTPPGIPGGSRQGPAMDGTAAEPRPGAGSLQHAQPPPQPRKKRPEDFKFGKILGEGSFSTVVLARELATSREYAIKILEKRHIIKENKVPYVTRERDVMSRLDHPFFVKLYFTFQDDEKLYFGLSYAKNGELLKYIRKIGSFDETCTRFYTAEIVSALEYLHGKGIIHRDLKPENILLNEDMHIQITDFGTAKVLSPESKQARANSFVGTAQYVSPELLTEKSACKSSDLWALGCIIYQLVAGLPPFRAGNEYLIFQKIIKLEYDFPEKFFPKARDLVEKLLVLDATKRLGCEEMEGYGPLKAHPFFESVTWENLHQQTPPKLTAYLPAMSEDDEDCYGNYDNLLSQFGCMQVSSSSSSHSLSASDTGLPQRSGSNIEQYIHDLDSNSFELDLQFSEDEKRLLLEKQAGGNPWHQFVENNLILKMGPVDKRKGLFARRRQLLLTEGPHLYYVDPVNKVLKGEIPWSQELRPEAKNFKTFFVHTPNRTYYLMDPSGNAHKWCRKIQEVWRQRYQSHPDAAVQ
Experimental: as §1
A structure-based sequence alignment of known kinase structures was obtained from, which was used to validate the sequence-based sequence alignment (Table 5).

[6] = target: SAPK2β/p38β2 (Homo sapiens, UniProt Q15759); assay: Kinase panel assay, SAPK2β/p38β2; type: biochemical; conditions: 1 μM inhibitor, 0.1 mM ATP, average of triplicate
[7] = target: SGK1 (Homo sapiens, UniProt O00141); assay: Kinase panel assay, SGK1; type: biochemical; conditions: 1 μM inhibitor, 0.1 mM ATP, average of triplicate
[8] = test system: CK1; assay: Kinase panel assay, CK1; type: biochemical; conditions: 1 μM inhibitor, 0.1 mM ATP, average of triplicate
[9] = target: NEK6 (Homo sapiens, UniProt Q9HC98); assay: Kinase panel assay, NEK6; type: biochemical; conditions: 1 μM inhibitor, 0.1 mM ATP, average of triplicate
[10] = target: MSK1 (Homo sapiens, UniProt O75582); assay: Kinase panel assay, MSK1; type: biochemical; conditions: 1 μM inhibitor, 0.1 mM ATP, average of triplicate
[11] = target: SAPK2α/p38 (Homo sapiens, UniProt Q16539); assay: Kinase panel assay, SAPK2α/p38; type: biochemical; conditions: 1 μM inhibitor, 0.1 mM ATP, average of triplicate
[12] = target: T2, CHK1 (Homo sapiens, UniProt O14757); assay: Kinase panel assay, CHK1; type: biochemical; conditions: 1 μM inhibitor, 0.1 mM ATP, average of triplicate
T2 sequence (O14757 1-476): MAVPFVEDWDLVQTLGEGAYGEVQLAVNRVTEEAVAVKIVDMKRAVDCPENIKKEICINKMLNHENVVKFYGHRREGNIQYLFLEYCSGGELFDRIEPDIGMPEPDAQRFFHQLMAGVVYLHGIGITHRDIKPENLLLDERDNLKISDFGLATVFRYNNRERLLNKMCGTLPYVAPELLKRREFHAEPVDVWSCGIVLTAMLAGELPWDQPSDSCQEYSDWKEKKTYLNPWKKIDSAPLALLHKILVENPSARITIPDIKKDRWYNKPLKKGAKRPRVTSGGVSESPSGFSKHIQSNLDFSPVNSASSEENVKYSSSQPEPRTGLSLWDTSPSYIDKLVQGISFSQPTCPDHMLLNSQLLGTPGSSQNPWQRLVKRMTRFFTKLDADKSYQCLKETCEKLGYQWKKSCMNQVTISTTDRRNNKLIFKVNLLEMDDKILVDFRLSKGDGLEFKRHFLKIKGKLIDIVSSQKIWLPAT

[13] = target: CK2 (Homo sapiens, UniProt P68400); assay: Kinase panel assay, CK2; type: biochemical; conditions: 1 μM inhibitor, 0.1 mM ATP, average of triplicate
[14] = target: CSK (Homo sapiens, UniProt P41240); assay: Kinase panel assay, CSK; type: biochemical; conditions: 1 μM inhibitor, 0.1 mM ATP, average of triplicate
[15] = target: SAPK4/p38δ (Homo sapiens, UniProt O15264); assay: Kinase panel assay, SAPK4/p38δ; type: biochemical; conditions: 1 μM inhibitor, 0.1 mM ATP, average of triplicate
[16] = target: JNKSAPK1c (Homo sapiens, UniProt P45983); assay: Kinase panel assay, JNKSAPK1c; type: biochemical; conditions: 1 μM inhibitor, 0.1 mM ATP, average of triplicate
[17] = target: ROCK-II (Homo sapiens, UniProt O75116); assay: Kinase panel assay, ROCK-II; type: biochemical; conditions: 1 μM inhibitor, 0.1 mM ATP, average of triplicate
[18] = target: MKK1 (Homo sapiens, UniProt Q02750); assay: Kinase panel assay, MKK1; type: biochemical; conditions: 1 μM inhibitor, 0.1 mM ATP, average of triplicate
[19] = target: S6K-pHM, phosphopeptide comprising the hydrophobic motif of S6K1; assay: SPR (BiaCore), against wild type PDK1
[20] = target: S6K-pHM, phosphopeptide comprising the hydrophobic motif of S6K1; assay: SPR (BiaCore), maximal response obtained empirically
[21] = target: S6K-pHM, phosphopeptide comprising the hydrophobic motif of S6K1; assay: SPR (BiaCore), rounded value
[22] = target: S6K-pHM, phosphopeptide comprising the hydrophobic motif of S6K1; assay: SPR (BiaCore 3000), biotinylated S6K-pHM on SA chip, GST-PDK1 injected at 2-2150 nM, steady state, apparent Kd
[23] = target: S6K-pHM, phosphopeptide comprising the hydrophobic motif of S6K1; assay: SPR (BiaCore), against PIFtide
[24] = target: S6K-pHM, phosphopeptide comprising the hydrophobic motif of S6K1; assay: SPR (BiaCore), dissociation phase
[25] = target: T3, wild type PDK1 fused through its N-terminus to glutathione S-transferase (GST-PDK1) (human, UniProt O15530 1-556); assay: cell-based or functional assay
T3 sequence: T1 sequence (O15530 1-556)

[26] = target: GST-PDK1[K76A] (human), O15530; assay: cell-based or functional assay
[27] = target: GST-PDK1[Q150A] (human), O15530; assay: cell-based or functional assay
[28] = target: T3, wild type PDK1 fused through its …; assay: SPR (BiaCore), biotinylated peptide on SA chip
Experimental: Binding was analysed in a BiaCore 3000 system (BiaCore AB, Stevenage, UK). […] 30 μl of wild type or the indicated mutant GST-PDK1 were injected at a flow rate of 30 μl/min, in buffer HBS-P (10 mM HEPES pH 7.4, 0.15M NaCl, 0.005% (by vol) polysorbate-20) supplemented with 1 mM DTT. […] Steady state binding was determined at each concentration. Dissociation of PDK1 from the phospho-peptide was monitored over a 1 min period. Regeneration of the sensor chip surface was performed with 10 μl injections of 0.05% SDS.

Sequence of MSK1 (O75582 whole entry): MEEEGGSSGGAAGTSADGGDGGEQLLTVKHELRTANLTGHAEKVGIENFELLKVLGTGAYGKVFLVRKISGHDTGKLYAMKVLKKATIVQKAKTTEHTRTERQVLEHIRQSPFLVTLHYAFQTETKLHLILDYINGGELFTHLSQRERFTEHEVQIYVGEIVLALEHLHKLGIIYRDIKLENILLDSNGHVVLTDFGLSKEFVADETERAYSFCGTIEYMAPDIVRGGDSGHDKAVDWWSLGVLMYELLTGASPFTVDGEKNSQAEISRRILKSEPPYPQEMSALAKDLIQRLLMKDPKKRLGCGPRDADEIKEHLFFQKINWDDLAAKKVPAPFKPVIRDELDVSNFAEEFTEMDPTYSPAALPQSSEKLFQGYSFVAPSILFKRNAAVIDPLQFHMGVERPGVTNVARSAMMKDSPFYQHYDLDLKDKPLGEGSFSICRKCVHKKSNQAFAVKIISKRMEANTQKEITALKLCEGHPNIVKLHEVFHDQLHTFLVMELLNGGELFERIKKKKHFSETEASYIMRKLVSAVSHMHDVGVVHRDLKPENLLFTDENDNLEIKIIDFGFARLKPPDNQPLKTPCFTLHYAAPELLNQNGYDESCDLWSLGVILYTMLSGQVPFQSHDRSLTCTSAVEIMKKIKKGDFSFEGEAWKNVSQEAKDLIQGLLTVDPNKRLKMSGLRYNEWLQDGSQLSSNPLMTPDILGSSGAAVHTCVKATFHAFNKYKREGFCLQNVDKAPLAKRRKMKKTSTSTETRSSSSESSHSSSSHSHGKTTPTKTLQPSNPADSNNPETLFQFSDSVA
Sequence of SAPK2β/p38β2 (Q15759 whole entry): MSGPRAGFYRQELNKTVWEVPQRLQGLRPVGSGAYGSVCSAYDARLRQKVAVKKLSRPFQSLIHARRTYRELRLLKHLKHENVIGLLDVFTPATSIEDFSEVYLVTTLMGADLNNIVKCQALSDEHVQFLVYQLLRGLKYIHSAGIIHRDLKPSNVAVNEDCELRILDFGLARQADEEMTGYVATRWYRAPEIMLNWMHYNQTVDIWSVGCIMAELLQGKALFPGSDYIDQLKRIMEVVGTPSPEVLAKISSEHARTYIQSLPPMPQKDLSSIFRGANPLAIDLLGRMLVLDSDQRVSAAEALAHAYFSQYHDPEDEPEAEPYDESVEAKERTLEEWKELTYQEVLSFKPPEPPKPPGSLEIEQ
Sequence of CK2 (P68400 whole entry): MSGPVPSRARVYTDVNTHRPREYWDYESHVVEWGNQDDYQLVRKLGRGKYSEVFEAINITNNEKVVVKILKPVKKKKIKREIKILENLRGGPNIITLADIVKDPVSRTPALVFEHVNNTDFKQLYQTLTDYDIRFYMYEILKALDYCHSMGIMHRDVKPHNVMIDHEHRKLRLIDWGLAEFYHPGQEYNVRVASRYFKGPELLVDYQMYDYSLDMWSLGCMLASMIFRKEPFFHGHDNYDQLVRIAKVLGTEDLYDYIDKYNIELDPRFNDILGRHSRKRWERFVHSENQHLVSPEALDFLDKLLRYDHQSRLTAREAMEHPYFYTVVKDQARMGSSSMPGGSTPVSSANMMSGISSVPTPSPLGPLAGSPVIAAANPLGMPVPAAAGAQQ
Sequence of SGK1 (O00141 whole entry): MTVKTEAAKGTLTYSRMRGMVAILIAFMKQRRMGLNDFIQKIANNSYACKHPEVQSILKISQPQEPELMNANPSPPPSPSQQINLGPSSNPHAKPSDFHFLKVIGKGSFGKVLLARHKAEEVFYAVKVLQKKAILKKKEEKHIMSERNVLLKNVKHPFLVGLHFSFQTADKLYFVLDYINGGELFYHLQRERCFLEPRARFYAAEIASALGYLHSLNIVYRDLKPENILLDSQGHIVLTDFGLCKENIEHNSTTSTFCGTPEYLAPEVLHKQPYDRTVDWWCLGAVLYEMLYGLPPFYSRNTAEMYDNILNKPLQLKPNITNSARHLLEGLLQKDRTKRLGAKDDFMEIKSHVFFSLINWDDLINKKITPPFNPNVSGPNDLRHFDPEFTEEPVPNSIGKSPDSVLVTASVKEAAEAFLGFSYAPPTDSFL
Sequence of SAPK2α/p38 (Q16539 whole entry): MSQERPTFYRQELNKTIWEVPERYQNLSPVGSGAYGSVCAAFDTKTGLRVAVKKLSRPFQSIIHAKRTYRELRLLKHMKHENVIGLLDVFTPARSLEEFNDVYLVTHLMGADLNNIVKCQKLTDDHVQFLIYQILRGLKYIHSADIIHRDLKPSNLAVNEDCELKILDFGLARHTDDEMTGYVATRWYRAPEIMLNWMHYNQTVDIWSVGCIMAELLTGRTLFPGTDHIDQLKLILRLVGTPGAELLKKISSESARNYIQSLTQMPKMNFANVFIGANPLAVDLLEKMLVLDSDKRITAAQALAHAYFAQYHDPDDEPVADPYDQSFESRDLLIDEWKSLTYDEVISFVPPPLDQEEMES
Sequence of MAPKAP-K1a (Q15418 whole entry, species assumed): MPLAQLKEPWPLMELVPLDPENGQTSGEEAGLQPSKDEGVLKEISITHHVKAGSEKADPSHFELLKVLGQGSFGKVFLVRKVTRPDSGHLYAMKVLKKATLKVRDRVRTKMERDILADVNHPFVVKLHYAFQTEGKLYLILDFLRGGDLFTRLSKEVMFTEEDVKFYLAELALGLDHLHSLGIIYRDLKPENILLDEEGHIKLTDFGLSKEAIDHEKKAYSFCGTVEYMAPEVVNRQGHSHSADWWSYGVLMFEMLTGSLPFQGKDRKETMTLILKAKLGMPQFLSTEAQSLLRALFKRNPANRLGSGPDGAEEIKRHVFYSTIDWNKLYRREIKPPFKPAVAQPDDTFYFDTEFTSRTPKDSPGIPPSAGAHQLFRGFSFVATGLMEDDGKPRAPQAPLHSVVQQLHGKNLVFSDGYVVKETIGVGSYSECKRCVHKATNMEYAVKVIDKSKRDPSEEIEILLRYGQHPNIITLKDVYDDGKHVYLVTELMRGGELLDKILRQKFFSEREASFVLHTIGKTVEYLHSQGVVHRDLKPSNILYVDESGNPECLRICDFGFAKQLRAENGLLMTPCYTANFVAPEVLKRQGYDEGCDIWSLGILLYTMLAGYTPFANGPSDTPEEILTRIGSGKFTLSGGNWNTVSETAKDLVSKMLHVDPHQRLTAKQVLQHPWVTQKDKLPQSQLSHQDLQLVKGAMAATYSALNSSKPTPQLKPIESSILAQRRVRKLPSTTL
Sequence of MKK1 (Q02750 whole entry, species assumed): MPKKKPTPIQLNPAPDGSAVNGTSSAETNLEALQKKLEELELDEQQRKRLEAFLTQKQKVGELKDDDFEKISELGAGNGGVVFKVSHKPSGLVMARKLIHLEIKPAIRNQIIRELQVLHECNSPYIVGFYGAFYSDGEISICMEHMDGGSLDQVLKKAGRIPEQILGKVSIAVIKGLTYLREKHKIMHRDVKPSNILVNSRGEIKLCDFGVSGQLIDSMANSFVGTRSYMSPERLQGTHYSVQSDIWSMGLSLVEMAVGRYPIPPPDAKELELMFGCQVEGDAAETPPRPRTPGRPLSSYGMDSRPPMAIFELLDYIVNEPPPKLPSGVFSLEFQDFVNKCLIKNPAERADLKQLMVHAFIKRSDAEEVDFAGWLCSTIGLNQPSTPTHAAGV
Sequence of ROCK-II (O75116 whole entry, species assumed): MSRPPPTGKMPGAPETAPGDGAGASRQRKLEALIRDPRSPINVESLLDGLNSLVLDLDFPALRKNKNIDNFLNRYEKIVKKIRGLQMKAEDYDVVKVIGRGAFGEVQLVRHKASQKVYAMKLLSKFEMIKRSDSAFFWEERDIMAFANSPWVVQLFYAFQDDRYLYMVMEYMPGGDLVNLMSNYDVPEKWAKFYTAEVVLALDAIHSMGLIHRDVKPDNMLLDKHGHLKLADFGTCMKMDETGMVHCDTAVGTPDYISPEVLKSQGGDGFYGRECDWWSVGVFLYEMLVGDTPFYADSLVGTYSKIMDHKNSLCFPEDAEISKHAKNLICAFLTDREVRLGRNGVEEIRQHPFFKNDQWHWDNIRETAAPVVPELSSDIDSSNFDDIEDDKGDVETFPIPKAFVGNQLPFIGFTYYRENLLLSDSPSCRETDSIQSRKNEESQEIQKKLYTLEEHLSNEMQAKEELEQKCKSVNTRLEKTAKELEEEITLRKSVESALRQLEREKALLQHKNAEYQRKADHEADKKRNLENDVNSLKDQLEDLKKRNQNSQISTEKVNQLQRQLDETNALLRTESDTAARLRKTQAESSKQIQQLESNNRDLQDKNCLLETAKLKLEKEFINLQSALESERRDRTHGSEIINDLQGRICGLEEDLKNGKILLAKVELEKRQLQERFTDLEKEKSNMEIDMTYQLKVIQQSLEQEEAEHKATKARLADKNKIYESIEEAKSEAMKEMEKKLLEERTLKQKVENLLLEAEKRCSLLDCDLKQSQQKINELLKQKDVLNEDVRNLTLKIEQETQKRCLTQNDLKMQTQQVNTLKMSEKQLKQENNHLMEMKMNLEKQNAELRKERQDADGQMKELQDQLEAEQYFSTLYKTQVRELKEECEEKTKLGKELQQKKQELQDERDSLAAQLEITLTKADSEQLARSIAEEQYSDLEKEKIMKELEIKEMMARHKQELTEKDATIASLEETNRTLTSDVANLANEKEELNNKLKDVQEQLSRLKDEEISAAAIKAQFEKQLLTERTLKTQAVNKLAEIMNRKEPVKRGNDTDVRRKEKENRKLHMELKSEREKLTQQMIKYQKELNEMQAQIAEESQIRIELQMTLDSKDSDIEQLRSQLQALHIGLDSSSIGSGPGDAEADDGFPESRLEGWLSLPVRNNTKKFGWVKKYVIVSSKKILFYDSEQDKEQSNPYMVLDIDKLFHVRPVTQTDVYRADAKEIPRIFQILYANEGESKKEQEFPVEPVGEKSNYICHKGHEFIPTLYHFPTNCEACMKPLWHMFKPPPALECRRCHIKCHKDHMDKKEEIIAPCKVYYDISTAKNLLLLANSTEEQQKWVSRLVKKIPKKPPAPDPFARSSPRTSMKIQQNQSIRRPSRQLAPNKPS

`CN[C@@H]1C[C@H]2O[C@@](C)([C@@H]1OC)n1c3ccccc3c3c4c(c5c6ccccc6n2c5c31)C(=O)NC4` [STO, staurosporine] was tested, and the “percentage of kinase activity compared to control incubations, AMPK” value [1] was 0 ± 0%, the “percentage of kinase activity compared to control incubations, PRAK” value [2] was 48 ± 1% and the “percentage of kinase activity compared to control incubations, MAPKAP-K1a” value [3] was 18 ± 10%. For the same molecule, the remaining activity at 1 µM [4] was 8 ± 2%, the “percentage of kinase activity compared to control incubations, PDK1” value [5] was 5 ± 1% and the “percentage of kinase activity compared to control incubations, SAPK2β/p38β2” value [6] was 84 ± 11%. The “percentage of kinase activity compared to control incubations, SGK1” value [7] was 51 ± 4%, the “percentage of kinase activity compared to control incubations, CK1” value [8] was 95 ± 11% and the “percentage of kinase activity compared to control incubations, NEK6” value [9] was 109 ± 2%. The “percentage of kinase activity compared to control incubations, MSK1” value [10] was 1 ± 0%, the “percentage of kinase activity compared to control incubations, MSK1” value ([10]; listed as staurosporine) was “abolished” and the “percentage of kinase activity compared to control incubations, SAPK2α/p38” value [11] was 76 ± 4%. For the same molecule, the “percentage of kinase activity compared to control incubations, CHK1” value [12] was 3 ± 1%, the “percentage of kinase activity compared to control incubations, CK2” value [13] was 95 ± 4% and the “percentage of kinase activity compared to control incubations, CSK” value [14] was 25 ± 8%. The “percentage of kinase activity compared to control incubations, SAPK4/p38δ” value [15] was 40 ± 5%, the “percentage of kinase activity compared to control incubations, JNKSAPK1c” value [16] was 91 ± 3% and the “percentage of kinase activity compared to control incubations, ROCK-II” value [17] was 9 ± 5%. For the same molecule, the “percentage of kinase activity compared to control incubations, MKK1” value [18] was 5 ± 8%.

In the case of “GST-PDK1[T148A] (from UniProt O15530 1-556) (enzyme)”, the fold higher affinity than wild type PDK1 [19] is reported as 10 fold, the RUmax [20] is reported as 435 RU and the Kd [21] is reported as 60 nM. The Kd [22] was 64 nM.

In the case of “wild type PDK1 fused through its N-terminus to glutathione S-transferase (GST-PDK1) (from UniProt O15530 1-556) (enzyme)”, the Kd [21] is reported as 600 nM, the Kd [22] is reported as 642 nM and the fold lower affinity than for PIFtide [23] is reported as 100 fold. It also gave a time taken for 50% dissociation [24] of 30 s.

For SESANQVFLGF[pT]YVAPSV (not fully specified; printed as SESANQVFLGFT*YVAPSV) [S6K-pHM, phosphopeptide comprising the hydrophobic motif of S6K1], the “maximal activation of PDK1 activity towards T308tide” value [25] was 5 fold, the concentration of S6K-pHM for half maximal activation, against wild type PDK1 (fold higher than wild type PDK1) [26] was 3 and the activation of PDK1 activity towards T308tide [27] was 2 fold and 3 fold.

In the case of SESANQVFLGFTYVAPSV (also: biotinylated in BiaCore assay, also called 56K-HM) [S6K-HM, non-phosphorylated peptide comprising the hydrophobic motif of S6K1], the “activation of PDK1 activity towards T308tide” value [25] is reported as less than 2 fold and the binding result [28] is reported as “no binding (tested: 2-2150 nM)”.
